Results: ChEMBL document CHEMBL3885861, “Open TG-GATES”

Species: Rattus norvegicus
Assay: Open TG-GATES - Regimen: Daily Repeat
Format: toxicity, organism-based, Sprague-Dawley
Design: regimen Daily Repeat, gender Male, age 6 weeks
Conditions: in vivo, po, route gavage; for APTT / Bas / Eos / Fbg / Hb / Ht / Lym / MCH / MCHC / MCV / Mono / Neu / PT / Plat / RBC / Ret / WBC: tissue Blood; for KIDNEY_L / KIDNEY_R / KIDNEY_TOTAL: tissue Kidney; for LIVER: tissue Liver; for A/G / ALP / ALT / AST / BUN / CRE / Ca / Cl / DBIL / GLC / IP / K / LDH / Na / PL / RALB / TBIL / TC / TG / TP / gamma-GTP: tissue Plasma
[1] = 300 mg/kg, 72 h, dose level Middle, time 3 day
[2] = 300 mg/kg, […], dose level Middle, time 7 day
[3] = 300 mg/kg, […], dose level Middle, time 14 day
[4] = 300 mg/kg, […], dose level Middle, time 28 day
[5] = 1000 mg/kg, 72 h, dose level High, time 3 day
[6] = 1000 mg/kg, […], dose level High, time 7 day
[7] = 1000 mg/kg, […], dose level High, time 14 day
[8] = 1000 mg/kg, […], dose level High, time 28 day

## CCOC(=O)CCC(=O)O[C@H]1[C@H](O[C@@H]2[C@@H](C)[C@H](O[C@H]3C[C@@](C)(OC)[C@@H](O)[C@H](C)O3)[C@@H](C)C(=O)O[C@H](CC)[C@@](C)(O)[C@H](O)[C@@H](C)C(=O)[C@H](C)C[C@@]2(C)O)O[C@H](C)C[C@@H]1N(C)C [ERYTHROMYCIN ETHYLSUCCINATE]
[1]
  TERMINAL_BW: 237.7 g
  APTT: 21.3 s
  Bas: 0%
  Eos: 1%
  Fbg: 311.6 mg/dL
  Hb: 13.5 g/dL
  Ht: 39.3%
  Lym: 83.2%
  MCH: 21.5 pg
  MCHC: 34.4%
  MCV: 62.7 fL
  Mono: 3%
  Neu: 11.8%
  PT: 15.8 s
  Plat: 114.1 x10_4/uL
  RBC: 627.6 x10_4/ul
  Ret: 5.1%
  WBC: 94.1 x10_2/uL
  KIDNEY_L: 1 g
  KIDNEY_R: 1 g
  KIDNEY_TOTAL: 2 g
  LIVER: 10.9 g
  A/G: 1.2
  ALP: 1728.8 IU/L
  ALT: 44 IU/L
  AST: 76 IU/L
  BUN: 18.6 mg/dL
  CRE: 0.2 mg/dL
  Ca: 10.4 mg/dL
  Cl: 108 meq/L
  DBIL: 0 mg/dL
  GLC: 192.6 mg/dL
  IP: 7.3 mg/dL
  K: 4.2 meq/L
  LDH: 261 IU/L
  Na: 141.2 meq/L
  PL: 133.8 mg/dL
  RALB: 3 g/dL
  TBIL: 0.016 mg/dL
  TC: 72.2 mg/dL
  TG: 100.6 mg/dL
  TP: 5.5 g/dL
  gamma-GTP: 1.4 IU/L
[2]
  TERMINAL_BW: 269.9 g
  APTT: 22.2 s
  Bas: 0%
  Eos: 1%
  Fbg: 331.6 mg/dL
  Hb: 13.7 g/dL
  Ht: 40.6%
  Lym: 84.8%
  MCH: 20.9 pg
  MCHC: 33.6%
  MCV: 62.3 fL
  Mono: 2.2%
  Neu: 11.2%
  PT: 16.3 s
  Plat: 120.3 x10_4/uL
  RBC: 653 x10_4/ul
  Ret: 6.3%
  WBC: 86.1 x10_2/uL
  KIDNEY_L: 1.1 g
  KIDNEY_R: 1.1 g
  KIDNEY_TOTAL: 2.2 g
  LIVER: 12.2 g
  A/G: 1.2
  ALP: 1819.6 IU/L
  ALT: 42.4 IU/L
  AST: 70.4 IU/L
  BUN: 19 mg/dL
  CRE: 0.2 mg/dL
  Ca: 10.6 mg/dL
  Cl: 107.6 meq/L
  DBIL: 0 mg/dL
  GLC: 194.6 mg/dL
  IP: 7.3 mg/dL
  K: 4.1 meq/L
  LDH: 185.6 IU/L
  Na: 142 meq/L
  PL: 148.2 mg/dL
  RALB: 3 g/dL
  TBIL: 0.002 mg/dL
  TC: 76 mg/dL
  TG: 123.6 mg/dL
  TP: 5.5 g/dL
  gamma-GTP: 1.6 IU/L
[3]
  TERMINAL_BW: 321.9 g
  APTT: 22.1 s
  Bas: 0%
  Eos: 1%
  Fbg: 335.6 mg/dL
  Hb: 14.1 g/dL
  Ht: 40.7%
  Lym: 87.4%
  MCH: 20.5 pg
  MCHC: 34.7%
  MCV: 58.9 fL
  Mono: 2.2%
  Neu: 8.2%
  PT: 16.1 s
  Plat: 116 x10_4/uL
  RBC: 690 x10_4/ul
  Ret: 4.9%
  WBC: 110.3 x10_2/uL
  KIDNEY_L: 1.3 g
  KIDNEY_R: 1.3 g
  KIDNEY_TOTAL: 2.6 g
  LIVER: 13.9 g
  A/G: 1.1
  ALP: 1368.6 IU/L
  ALT: 35 IU/L
  AST: 70.2 IU/L
  BUN: 19.4 mg/dL
  CRE: 0.2 mg/dL
  Ca: 10.4 mg/dL
  Cl: 107.6 meq/L
  DBIL: 0 mg/dL
  GLC: 206.6 mg/dL
  IP: 7.2 mg/dL
  K: 4 meq/L
  LDH: 157.8 IU/L
  Na: 141.8 meq/L
  PL: 146.8 mg/dL
  RALB: 2.9 g/dL
  TBIL: 0.01 mg/dL
  TC: 79.8 mg/dL
  TG: 105.2 mg/dL
  TP: 5.5 g/dL
  gamma-GTP: 1.6 IU/L
[4]
  TERMINAL_BW: 391.2 g
  APTT: 24.1 s
  Bas: 0%
  Eos: 1.2%
  Fbg: 339.2 mg/dL
  Hb: 15.6 g/dL
  Ht: 45.3%
  Lym: 85.4%
  MCH: 19 pg
  MCHC: 34.3%
  MCV: 55.3 fL
  Mono: 2.4%
  Neu: 9.2%
  PT: 16 s
  Plat: 99.2 x10_4/uL
  RBC: 819.8 x10_4/ul
  Ret: 2.5%
  WBC: 96.8 x10_2/uL
  KIDNEY_L: 1.4 g
  KIDNEY_R: 1.4 g
  KIDNEY_TOTAL: 2.9 g
  LIVER: 15.4 g
  A/G: 1.1
  ALP: 1061.2 IU/L
  ALT: 36.8 IU/L
  AST: 59.2 IU/L
  BUN: 19.6 mg/dL
  CRE: 0.2 mg/dL
  Ca: 10.5 mg/dL
  Cl: 106.4 meq/L
  DBIL: 0 mg/dL
  GLC: 203.4 mg/dL
  IP: 6.9 mg/dL
  K: 4 meq/L
  LDH: 130.6 IU/L
  Na: 141.4 meq/L
  PL: 151.8 mg/dL
  RALB: 3.1 g/dL
  TBIL: 0.014 mg/dL
  TC: 78.2 mg/dL
  TG: 140 mg/dL
  TP: 5.8 g/dL
  gamma-GTP: 2.2 IU/L
[5]
  TERMINAL_BW: 226.1 g
  APTT: 20.6 s
  Bas: 0%
  Eos: 1%
  Fbg: 325 mg/dL
  Hb: 14.4 g/dL
  Ht: 41.8%
  Lym: 86.4%
  MCH: 21.2 pg
  MCHC: 34.4%
  MCV: 61.6 fL
  Mono: 3%
  Neu: 8.6%
  PT: 15.7 s
  Plat: 125 x10_4/uL
  RBC: 679.6 x10_4/ul
  Ret: 3.4%
  WBC: 68.6 x10_2/uL
  KIDNEY_L: 1 g
  KIDNEY_R: 1 g
  KIDNEY_TOTAL: 2 g
  LIVER: 9.5 g
  A/G: 1.2
  ALP: 1860.4 IU/L
  ALT: 38.2 IU/L
  AST: 67.4 IU/L
  BUN: 17 mg/dL
  CRE: 0.2 mg/dL
  Ca: 10.5 mg/dL
  Cl: 108.4 meq/L
  DBIL: 0.002 mg/dL
  GLC: 178 mg/dL
  IP: 7.2 mg/dL
  K: 4.2 meq/L
  LDH: 198.2 IU/L
  Na: 141.8 meq/L
  PL: 155.6 mg/dL
  RALB: 3.1 g/dL
  TBIL: 0.032 mg/dL
  TC: 95.2 mg/dL
  TG: 58.4 mg/dL
  TP: 5.7 g/dL
  gamma-GTP: 1.4 IU/L
[6]
  TERMINAL_BW: 250.4 g
  APTT: 21.4 s
  Bas: 0%
  Eos: 1%
  Fbg: 338.6 mg/dL
  Hb: 13.6 g/dL
  Ht: 40.3%
  Lym: 81.6%
  MCH: 20.5 pg
  MCHC: 33.9%
  MCV: 60.4 fL
  Mono: 2.2%
  Neu: 14%
  PT: 16.6 s
  Plat: 112.5 x10_4/uL
  RBC: 666.4 x10_4/ul
  Ret: 3.8%
  WBC: 93.3 x10_2/uL
  KIDNEY_L: 1.1 g
  KIDNEY_R: 1.1 g
  KIDNEY_TOTAL: 2.2 g
  LIVER: 10.1 g
  A/G: 1.1
  ALP: 1998.2 IU/L
  ALT: 35.2 IU/L
  AST: 71.8 IU/L
  BUN: 18.2 mg/dL
  CRE: 0.2 mg/dL
  Ca: 10.5 mg/dL
  Cl: 108.2 meq/L
  DBIL: 0 mg/dL
  GLC: 188.6 mg/dL
  IP: 7.4 mg/dL
  K: 4.1 meq/L
  LDH: 156.6 IU/L
  Na: 141.8 meq/L
  PL: 155 mg/dL
  RALB: 2.8 g/dL
  TBIL: 0.01 mg/dL
  TC: 84.8 mg/dL
  TG: 97.6 mg/dL
  TP: 5.4 g/dL
  gamma-GTP: 1.6 IU/L
[7]
  TERMINAL_BW: 298.7 g
  APTT: 20.5 s
  Bas: 0%
  Eos: 0.8%
  Fbg: 327.6 mg/dL
  Hb: 14.2 g/dL
  Ht: 40.6%
  Lym: 83%
  MCH: 20.5 pg
  MCHC: 34.8%
  MCV: 59 fL
  Mono: 3.2%
  Neu: 11.4%
  PT: 16.2 s
  Plat: 107.4 x10_4/uL
  RBC: 690 x10_4/ul
  Ret: 4.6%
  WBC: 91.9 x10_2/uL
  KIDNEY_L: 1.2 g
  KIDNEY_R: 1.2 g
  KIDNEY_TOTAL: 2.4 g
  LIVER: 12.3 g
  A/G: 1.1
  ALP: 1716 IU/L
  ALT: 36 IU/L
  AST: 68.8 IU/L
  BUN: 19.6 mg/dL
  CRE: 0.2 mg/dL
  Ca: 10.7 mg/dL
  Cl: 108.6 meq/L
  DBIL: 0 mg/dL
  GLC: 187 mg/dL
  IP: 6.6 mg/dL
  K: 4.4 meq/L
  LDH: 161 IU/L
  Na: 142 meq/L
  PL: 163.2 mg/dL
  RALB: 2.9 g/dL
  TBIL: 0.006 mg/dL
  TC: 88.8 mg/dL
  TG: 140.8 mg/dL
  TP: 5.6 g/dL
  gamma-GTP: 1.8 IU/L
[8]
  TERMINAL_BW: 358.6 g
  APTT: 24.9 s
  Bas: 0%
  Eos: 1%
  Fbg: 340.4 mg/dL
  Hb: 15.2 g/dL
  Ht: 43.7%
  Lym: 82.4%
  MCH: 18.9 pg
  MCHC: 34.7%
  MCV: 54.3 fL
  Mono: 2.2%
  Neu: 12.6%
  PT: 16.3 s
  Plat: 102.9 x10_4/uL
  RBC: 804.4 x10_4/ul
  Ret: 2.3%
  WBC: 79.8 x10_2/uL
  KIDNEY_L: 1.4 g
  KIDNEY_R: 1.4 g
  KIDNEY_TOTAL: 2.8 g
  LIVER: 13.8 g
  A/G: 1.1
  ALP: 1257.4 IU/L
  ALT: 37 IU/L
  AST: 67.6 IU/L
  BUN: 19.2 mg/dL
  CRE: 0.2 mg/dL
  Ca: 10.4 mg/dL
  Cl: 108.8 meq/L
  DBIL: 0.002 mg/dL
  GLC: 173 mg/dL
  IP: 6.9 mg/dL
  K: 4.1 meq/L
  LDH: 132.8 IU/L
  Na: 141.8 meq/L
  PL: 138 mg/dL
  RALB: 3 g/dL
  TBIL: 0.012 mg/dL
  TC: 75.2 mg/dL
  TG: 99.6 mg/dL
  TP: 5.7 g/dL
  gamma-GTP: 1.6 IU/L
